pIC50: −log10 of the molar value. In brackets after ≈: the same amount, converted by molar mass. Activity calls are given as the source filed them. The calls are words filed in the database; no cut-off is given here.
Key:
[1] = target: Metabotropic glutamate receptor 5 (Rattus norvegicus, UniProt P31424); assay: Negative allosteric modulation of rat mGluR5 receptor expressed in HEK293 cells assessed as intracellular calcium flux after 170 seconds by FLIPR assay; format: functional, cell-based; details: for IC50: hek293; for pIC50: read-out: IC50
Metabotropic glutamate receptor 5, sequence (P31424 whole entry): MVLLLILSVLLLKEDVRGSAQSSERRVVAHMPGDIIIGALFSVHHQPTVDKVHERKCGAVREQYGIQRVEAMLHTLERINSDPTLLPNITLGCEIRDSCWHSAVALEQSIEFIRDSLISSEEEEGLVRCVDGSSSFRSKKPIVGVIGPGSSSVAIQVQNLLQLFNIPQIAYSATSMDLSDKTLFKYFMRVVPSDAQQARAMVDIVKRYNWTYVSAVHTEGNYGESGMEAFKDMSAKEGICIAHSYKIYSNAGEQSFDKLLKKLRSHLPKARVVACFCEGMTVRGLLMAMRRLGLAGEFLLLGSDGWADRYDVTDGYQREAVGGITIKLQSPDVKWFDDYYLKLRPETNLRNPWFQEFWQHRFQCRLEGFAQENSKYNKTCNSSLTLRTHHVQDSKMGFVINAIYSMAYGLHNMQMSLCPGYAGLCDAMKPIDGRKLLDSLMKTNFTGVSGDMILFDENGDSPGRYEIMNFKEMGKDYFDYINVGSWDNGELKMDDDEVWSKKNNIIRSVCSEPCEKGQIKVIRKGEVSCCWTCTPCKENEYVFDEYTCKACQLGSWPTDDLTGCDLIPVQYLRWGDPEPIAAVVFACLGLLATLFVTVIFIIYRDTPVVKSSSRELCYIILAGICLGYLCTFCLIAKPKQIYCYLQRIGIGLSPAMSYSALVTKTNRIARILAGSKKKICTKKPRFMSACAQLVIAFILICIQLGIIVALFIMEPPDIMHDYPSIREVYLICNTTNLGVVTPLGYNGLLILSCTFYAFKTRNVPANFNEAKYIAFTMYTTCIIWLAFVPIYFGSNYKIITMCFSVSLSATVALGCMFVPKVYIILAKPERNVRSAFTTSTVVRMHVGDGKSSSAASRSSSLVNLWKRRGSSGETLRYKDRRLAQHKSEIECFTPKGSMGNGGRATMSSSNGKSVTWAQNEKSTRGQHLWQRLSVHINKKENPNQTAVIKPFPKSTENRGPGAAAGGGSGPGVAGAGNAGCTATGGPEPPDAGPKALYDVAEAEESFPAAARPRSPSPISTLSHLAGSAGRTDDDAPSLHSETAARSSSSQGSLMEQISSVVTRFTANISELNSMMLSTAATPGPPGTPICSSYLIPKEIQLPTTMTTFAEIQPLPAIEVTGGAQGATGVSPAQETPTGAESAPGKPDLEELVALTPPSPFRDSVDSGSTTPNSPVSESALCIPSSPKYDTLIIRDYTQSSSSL

Rattus norvegicus = assay: Antinociceptive activity in Sprague-Dawley rat assessed as reduction in formalin-induced nocifensive behavior at 10 mg/kg, po administered 30 mins prior to formalin-challenge; format: functional, organism-based; design: dose 10 mg/kg
Cytochrome P450 3A4 = Cytochrome P450 3A4 (Homo sapiens, UniProt P08684); assay: Inhibition of CYP3A4 (unknown origin); format: ADME
Cytochrome P450 3A4, sequence (P08684 whole entry): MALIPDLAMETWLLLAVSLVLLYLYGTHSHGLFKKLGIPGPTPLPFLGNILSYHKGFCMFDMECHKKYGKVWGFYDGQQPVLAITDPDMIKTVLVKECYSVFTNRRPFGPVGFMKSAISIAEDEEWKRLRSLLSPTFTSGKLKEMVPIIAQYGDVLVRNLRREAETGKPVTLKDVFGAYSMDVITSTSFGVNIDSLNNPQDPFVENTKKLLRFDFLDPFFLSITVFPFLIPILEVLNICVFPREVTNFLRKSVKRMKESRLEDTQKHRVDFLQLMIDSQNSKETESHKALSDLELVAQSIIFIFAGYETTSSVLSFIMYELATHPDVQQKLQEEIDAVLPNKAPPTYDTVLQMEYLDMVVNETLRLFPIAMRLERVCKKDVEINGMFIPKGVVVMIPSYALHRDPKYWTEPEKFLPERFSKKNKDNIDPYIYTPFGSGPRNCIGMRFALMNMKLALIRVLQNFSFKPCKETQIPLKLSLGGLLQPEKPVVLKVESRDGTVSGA

Cytochrome P450 2C9 = Cytochrome P450 2C9 (Homo sapiens, UniProt P11712); assay: Inhibition of CYP2C9 (unknown origin); format: ADME
Cytochrome P450 2C9, sequence (P11712 whole entry): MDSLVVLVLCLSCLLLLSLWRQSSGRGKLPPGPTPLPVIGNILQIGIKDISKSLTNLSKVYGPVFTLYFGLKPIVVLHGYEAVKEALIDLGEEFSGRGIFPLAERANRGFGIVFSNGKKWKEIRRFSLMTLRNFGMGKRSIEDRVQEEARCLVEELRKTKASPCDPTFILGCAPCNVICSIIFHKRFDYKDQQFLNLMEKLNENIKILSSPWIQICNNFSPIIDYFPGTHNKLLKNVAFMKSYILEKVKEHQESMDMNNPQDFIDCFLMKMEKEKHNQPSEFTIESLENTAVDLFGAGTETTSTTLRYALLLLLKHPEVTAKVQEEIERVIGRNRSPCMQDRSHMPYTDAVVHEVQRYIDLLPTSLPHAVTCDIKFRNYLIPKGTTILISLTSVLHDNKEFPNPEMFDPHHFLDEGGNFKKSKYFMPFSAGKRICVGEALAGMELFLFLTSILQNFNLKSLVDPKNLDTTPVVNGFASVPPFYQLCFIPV

Cytochrome P450 2D6 = Cytochrome P450 2D6 (Homo sapiens, UniProt P10635); assay: Inhibition of CYP2D6 (unknown origin); format: ADME
Cytochrome P450 2D6, sequence (P10635 whole entry): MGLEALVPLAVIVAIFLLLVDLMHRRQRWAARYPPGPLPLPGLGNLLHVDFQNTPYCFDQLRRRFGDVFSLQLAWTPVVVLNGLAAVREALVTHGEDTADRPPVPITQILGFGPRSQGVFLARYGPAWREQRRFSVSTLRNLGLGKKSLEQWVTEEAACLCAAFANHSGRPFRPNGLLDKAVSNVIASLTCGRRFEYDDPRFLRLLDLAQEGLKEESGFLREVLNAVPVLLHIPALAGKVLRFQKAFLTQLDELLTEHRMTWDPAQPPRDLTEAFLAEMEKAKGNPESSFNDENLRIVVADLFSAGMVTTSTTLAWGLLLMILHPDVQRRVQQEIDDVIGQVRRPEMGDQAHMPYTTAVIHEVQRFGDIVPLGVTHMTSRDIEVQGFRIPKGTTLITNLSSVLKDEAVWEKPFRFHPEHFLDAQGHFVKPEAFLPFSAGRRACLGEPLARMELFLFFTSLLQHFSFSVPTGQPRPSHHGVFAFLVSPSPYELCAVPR

[2] = Kinetic solubility of the compound in DMSO at pH 7.4; format: physicochemical; details: read-out: Kinetic_solubility
[3] = Kinetic solubility of the compound in DMSO at pH 1; format: physicochemical; details: read-out: Kinetic_solubility
[4] = Intrinsic clearance in human microsomes measured per mg of protein; format: ADME, Microsome
Plasma = assay: Metabolic stability in rat plasma matrix; format: ADME, cell-free
[5] = target: Metabotropic glutamate receptor 5 (Rattus norvegicus) (UniProt P31424); assay: Displacement of [3H]MPEP from mGluR5 receptor in Sprague-Dawley rat cortical homogenate after 1 hr by liquid scintillation spectrometric analysis
Metabotropic glutamate receptor 5 (Rattus norvegicus), sequence (P31424 21-1203 limits assumed): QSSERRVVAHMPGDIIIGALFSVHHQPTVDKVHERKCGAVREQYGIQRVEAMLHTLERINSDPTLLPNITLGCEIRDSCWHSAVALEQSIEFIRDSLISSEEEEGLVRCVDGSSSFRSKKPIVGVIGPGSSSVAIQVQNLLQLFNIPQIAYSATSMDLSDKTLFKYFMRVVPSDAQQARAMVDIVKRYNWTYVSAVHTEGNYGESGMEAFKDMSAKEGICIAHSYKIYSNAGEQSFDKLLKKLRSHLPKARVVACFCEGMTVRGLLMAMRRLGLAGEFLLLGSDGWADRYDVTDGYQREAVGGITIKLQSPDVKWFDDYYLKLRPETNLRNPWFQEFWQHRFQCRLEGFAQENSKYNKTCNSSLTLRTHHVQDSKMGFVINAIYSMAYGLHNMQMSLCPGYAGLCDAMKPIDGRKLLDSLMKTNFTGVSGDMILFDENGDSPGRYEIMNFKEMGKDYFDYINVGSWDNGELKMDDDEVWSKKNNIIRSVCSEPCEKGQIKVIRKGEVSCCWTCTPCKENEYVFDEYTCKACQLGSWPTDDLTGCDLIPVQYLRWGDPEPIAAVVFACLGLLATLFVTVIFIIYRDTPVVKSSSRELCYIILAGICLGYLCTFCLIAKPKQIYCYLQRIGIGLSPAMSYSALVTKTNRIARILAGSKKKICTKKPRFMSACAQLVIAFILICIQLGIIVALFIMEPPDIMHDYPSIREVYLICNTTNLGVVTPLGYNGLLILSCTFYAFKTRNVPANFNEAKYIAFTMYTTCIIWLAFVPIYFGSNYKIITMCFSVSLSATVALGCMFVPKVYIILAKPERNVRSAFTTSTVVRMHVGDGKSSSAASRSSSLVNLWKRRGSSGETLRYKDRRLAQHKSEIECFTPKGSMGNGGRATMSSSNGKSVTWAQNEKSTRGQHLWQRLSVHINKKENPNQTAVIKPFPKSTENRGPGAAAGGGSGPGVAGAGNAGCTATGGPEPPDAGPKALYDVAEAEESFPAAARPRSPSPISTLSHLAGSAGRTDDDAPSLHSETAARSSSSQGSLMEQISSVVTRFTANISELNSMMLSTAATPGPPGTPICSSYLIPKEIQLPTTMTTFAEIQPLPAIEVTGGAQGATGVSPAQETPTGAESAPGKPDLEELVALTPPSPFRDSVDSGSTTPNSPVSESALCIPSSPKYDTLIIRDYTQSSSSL

[6] = target: Metabotropic glutamate receptor 5 (Rattus norvegicus) (UniProt P31424); assay: Inhibition of rat mGluR5 receptor expressed in HEK293 cells at 30 uM relative to control; format: cell-based
Cytochrome P450 1A2 = target: T1, Cytochrome P450 1A2 (Homo sapiens, UniProt P05177); assay: Inhibition of CYP1A2 (unknown origin); format: ADME
T1 sequence (P05177 whole entry): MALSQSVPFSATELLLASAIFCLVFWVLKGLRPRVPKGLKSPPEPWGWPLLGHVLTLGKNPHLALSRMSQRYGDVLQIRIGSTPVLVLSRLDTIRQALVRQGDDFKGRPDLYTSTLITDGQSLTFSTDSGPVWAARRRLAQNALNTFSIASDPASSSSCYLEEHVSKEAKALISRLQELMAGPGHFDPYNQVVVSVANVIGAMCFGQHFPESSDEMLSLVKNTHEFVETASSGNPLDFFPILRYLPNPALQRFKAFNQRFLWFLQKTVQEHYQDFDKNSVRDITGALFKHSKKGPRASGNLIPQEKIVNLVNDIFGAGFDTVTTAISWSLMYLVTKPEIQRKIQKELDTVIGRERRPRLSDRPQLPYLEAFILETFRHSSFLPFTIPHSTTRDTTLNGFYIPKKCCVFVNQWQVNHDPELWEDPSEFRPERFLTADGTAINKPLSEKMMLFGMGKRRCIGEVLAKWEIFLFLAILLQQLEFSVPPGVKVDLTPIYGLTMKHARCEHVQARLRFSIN

[7] = Intrinsic clearance in rat microsomes measured per mg of protein; format: ADME, Microsome
[8] = target: Metabotropic glutamate receptor 5 (Rattus norvegicus) (UniProt P31424); assay: Partial negative allosteric modulation of rat mGluR5 receptor expressed in HEK293 cells assessed as intracellular calcium flux after 170 seconds by FLIPR assay relative to control; format: functional, cell-based

## Nc1ccc(NC(=O)c2cc3n(n2)CCCC3)nc1
[1]
  IC50: Not Active

## Cc1nc(C#Cc2cccnc2)cs1
Rattus norvegicus
  Activity: Active

## O=C(Nc1ccc(F)cn1)c1cc2n(n1)CCCC2
Cytochrome P450 3A4
  INH: > 10 µM
Cytochrome P450 2C9
  INH: > 10 µM
Cytochrome P450 2D6
  INH: > 10 µM
[2]
  solubility kinetic: 40 µg/mL (≈ 154 µM)
[3]
  solubility kinetic: 100 µg/mL (≈ 384 µM)
[4]
  microsomal CLint: 31 µL/min/mg
Plasma
  Stability: Unstable
[5]
  INH: 166 nM
[6]
  inhibition: > 99%
[1]
  pIC50: 7.22
Cytochrome P450 1A2
  INH: > 10 µM

## O=C(Nc1ncccc1O)c1cc2n(n1)CCCC2
[1]
  pIC50: < 5.00

## c1ccc(COc2cc3n(n2)CCCC3)cc1
[1]
  IC50: Not Active

## Cc1ccnc(-c2cc3n(n2)CCCC3)c1
[1]
  pIC50: 5.51

## O=C(Nc1ccccn1)c1cc2n(n1)CCCC2
[1]
  pIC50: 6.44

## Cc1cccnc1-c1cc2n(n1)CCCC2
[1]
  IC50: Not Active

## Cc1ccc(-c2cc3n(n2)CCCC3)nc1
[1]
  pIC50: 5.52

## c1ccc(COc2cc3n(n2)CCCC3)nc1
[1]
  pIC50: 5.60

## N#Cc1ccnc(NC(=O)c2cc3n(n2)CCCC3)c1
[1]
  IC50: Not Active

## Clc1cccc(COc2cc3n(n2)CCCC3)n1
[1]
  pIC50: 5.23

## N#Cc1ccc(NC(=O)c2cc3ccccn3n2)nc1
[1]
  pIC50: 5.74

## Cc1cc(C(=O)Nc2ccc(C#N)cn2)nn1C
[4]
  microsomal CLint: < 5 µL/min/mg
[7]
  microsomal CLint: < 5 µL/min/mg
[6]
  inhibition: > 99%
[1]
  pIC50: 5.58

## Cc1cccnc1NC(=O)c1cc2n(n1)CCCC2
[1]
  IC50: Not Active

## N#Cc1ccc(COc2cc3n(n2)CCCC3)cc1
[1]
  pIC50: 5.79

## Nc1cccc(COc2cc3n(n2)CCCC3)n1
[1]
  IC50: Not Active

## CN(C(=O)c1cc2n(n1)CCCC2)c1ccccn1
[1]
  IC50: Not Active

## O=C(Nc1cccc(C(F)(F)F)n1)c1cc2n(n1)CCCC2
[1]
  IC50: Not Active

## N#Cc1ccc(CC(=O)c2nn3c(c2C#N)CCCC3)nc1
[1]
  pIC50: 5.27

## Clc1ccc(-c2cc3n(n2)CCCC3)nc1
[1]
  pIC50: 6.17

## Clc1ccccc1-c1cc2n(n1)CCCC2
[1]
  pIC50: 5.58

## Clc1ccc(-c2cc3n(n2)CCCC3)cc1
[1]
  pIC50: 5.37

## N#Cc1ccc(NC(=O)c2cc3n(n2)CCCC3)nc1
Cytochrome P450 3A4
  INH: > 10 µM
Cytochrome P450 2C9
  INH: > 10 µM
Cytochrome P450 2D6
  INH: > 10 µM
[4]
  microsomal CLint: 83 µL/min/mg
Plasma
  Stability: Unstable
[5]
  INH: 151 nM
[6]
  inhibition: > 99%
[1]
  pIC50: 7.05
Cytochrome P450 1A2
  INH: > 10 µM

## Clc1ccnc(-c2cc3n(n2)CCCC3)c1
[1]
  pIC50: 6.17

## N#Cc1cccc(COc2cc3n(n2)CCCC3)c1
[8]
  pIC50: 6.35

## Cc1ccnc(NC(=O)c2cc3n(n2)CCCC3)c1
[1]
  IC50: Not Active

From ChEMBL document CHEMBL2406991, “A novel series of metabotropic glutamate receptor 5 negative allosteric modulators based on a 4,5,6,7-tetrahydropyrazolo[1,5-a]pyridine core” (Bioorg Med Chem Lett, 2013)
